Data on two compounds can be found in patent US10933053B2, “Treating infections with ceftolozane/tazobactam in subjects having impaired renal function” (MERCK SHARP & DOHME CORP., priority 2013, dated 2021).

A short description of the series: Phase I studies: impact of renal function on PK and safety of ceftolozane/tazobactam. Format: in vivo, human. The settings on record: for median AUC0-∞ increase vs normal renal function / median Cmax increase vs normal renal function: moderate renal impairment; for median AUC0-∞ increase vs dose-normalized exposure in normal renal function / median Cmax increase vs dose-normalized exposure in normal renal function: severe renal impairment. The text has this:
Male and female subjects, aged 18 to 79 years, with varying degrees of renal function were enrolled in two, prospective, open-label, phase I studies of intravenous ceftolozane/tazobactam. A total of 36 subjects were enrolled into cohorts based on degree of renal function: normal (n=11), mild impairment (n=6), moderate impairment (n=7), severe impairment (n=6), and ESRD on HD (n=6). To ensure subjects with ESRD were receiving effective HD, a target adequacy of HD calculated from the pre- and post-blood urea nitrogen ratios (Kt/V) of at least 1.2 for a minimum of 3 months prior to enrollment was required.
All cohorts received ceftolozane/tazobactam as an intravenous infusion over 1 h. The normal, mild, and moderate renal impairment cohorts received a single dose of ceftolozane/tazobactam 1,000 mg/500 mg; the severe renal impairment cohort received a single dose of ceftolozane/tazobactam 500 mg/250 mg; the ESRD cohort received a dose of ceftolozane/tazobactam 500 mg/250 mg initiated at the end of HD on day 1 and another dose initiated 2 h before HD on day 4. Subjects with ESRD underwent HD for 3 to 4 h using a high-flux membrane as scheduled; average dialysis flow rate was 600 to 800 ml/min. Revaclear hemodialyzers (Gambro, Stockholm, Sweden) were used in 5 subjects (ultrafiltration coefficient 50 to 60 ml/h/mmHg, high flux membrane of 1.4 to 1.8 m^2) and a CT 190G hemodialyzers (Baxter Healthcare, McGaw Park, Ill.) was used in 1 subject (ultrafiltration coefficient 36 ml/h/mmHg, high flux membrane of 1.9 m^2). The average blood flow rate was 400 to 600 ml/min with the exception of one subject with rates between 264 and 400 ml/min.
Plasma concentrations of ceftolozane and tazobactam were measured prior to, during, and following administration of ceftolozane/tazobactam. Blood samples were collected 30 min prior to administration, at the end of administration and at 5, 15, and 30 min and 1, 2, 3, 5, 7, 9, 11, 15, 25, and 35 h after completion of ceftolozane/tazobactam administration in the normal, mild, and moderate renal impairment cohorts. Severe renal impairment and ESRD cohorts off HD had samples taken 30 min prior to administration and at 0.5, 1, 1.5, 2, 3, 6, 9, 12, 24, 36, and 48 h after the start of administration. On the day of and following HD, the subjects with ESRD had samples taken 30 min prior to administration and at 0.5, 1, 1.5, 2, 3, 4, 5, 6, 9, 12, 24, 36, and 44 h after the start of the administration. The entire dialysate was collected at each of the following intervals: 0 to 1, 1 to 2, 2 to 3, and 3 h to the end of dialysis. Urine for PK analysis was obtained in the normal, mild, and moderate cohorts at 0 to 2, 2 to 4, 4 to 8, 8 to 12, 12 to 24, and 24 to 36 h after the start of ceftolozane/tazobactam administration. In the ESRD and severe renal impairment cohorts, urine was collected during the confinement period pre-dose, 0 to 24 h, and 24 to 48 h after the start of the administration, unless the subject was anuric. A validated LC/MS/MS method was utilized to analyze all plasma, urine, and dialysate samples for ceftolozane and tazobactam (MicroConstants Inc., San Diego, Calif.) (4). The lower limit of quantification (LLOQ) in plasma was 0.25 μg/ml for ceftolozane and 0.1 μg/ml for tazobactam. The assay was linear between 0.25 and 150 μg/ml for ceftolozane and between 0.1 and 50 μg/ml for tazobactam. […] The LLOQ in dialysate for both ceftolozane and tazobactam was 1 ng/ml and the assay was linear between 1 and 500 ng/ml. […] The LLOQ for ceftolozane and tazobactam in urine was 5 and 10 μg/ml, respectively, and the assay was linear between 5 and 5,000 μg/ml for ceftolozane and between 10 and 10,000 μg/ml for tazobactam.

Consider `Cn1c(N)c(NC(=O)NCCN)c[n+]1CC1=C(C(=O)O)N2C(=O)[C@@H](NC(=O)/C(=N\OC(C)(C)C(=O)O)c3nsc(N)n3)[C@H]2SC1` [Ceftolozane, (6R,7R)-3-[(5-amino-4-{[(2-aminoethyl)carbamoyl]amino}-1-methyl-1H-pyrazol-2-ium-2-yl)methyl]-7-({(2Z)-2-(5-amino-1,2,4-thiadiazol-3-yl)-2-[(1-carboxy-1-methylethoxy)imino]acetyl}amino)-8-oxo-5-thia-1-azabicyclo[4.2.0]oct-2-ene-2-carboxylate], for which the “median AUC0-∞ increase vs normal renal function” value is 2.5 fold, the “median Cmax increase vs normal renal function” value is recorded as 1.2 fold, the “median AUC0-∞ increase vs dose-normalized exposure in normal renal function” value was found to be 4.4 fold and the “median Cmax increase vs dose-normalized exposure in normal renal function” value is 1.3 fold.
The matching figures for `C[C@]1(Cn2ccnn2)[C@H](C(=O)O)N2C(=O)C[C@H]2S1(=O)=O` [Tazobactam, tazobactam]: 2.2 fold, 1.6 fold, 3.8 fold and 1.9 fold.
